Results on four sequences are retold here after EP1983049B1, “Peptides binding to the Lck-SH3 and Hck-SH3 domains” (Forschungszentrum Jülich GmbH, priority 2005, dated 2006).

Where no end group is shown, it is not given here. Where only a bound is given, the exact number is not on record here.

Assay [1] deals with T1, Lck-SH3 (Homo sapiens, UniProt P06239).
T1 construct: Inkubation der Membran mit dem zu untersuchenden Protein (hier Lck-SH3); made in house
Description: PepSpot membrane substitution analysis, relative Lck binding activity. The following applies: 7 of 12 positions of PD1-R substituted, 0,5 µg/ml SH3 protein, Fig. 4. The text has this: Eine andere Methode, Protein-Protein-Wechselwirkungen zu untersuchen, ist die Benutzung so genannter PepSpot-Membranen. Sie basiert auf der Synthese von immobilisierten Peptiden auf aktivierten Membrane und kann z. B. zur Optimierung der Bindungseigenschaften bereits identifizierter Liganden durch Substitutionsanalyse verwendet werden. Nach der Inkubation der Membran mit dem zu untersuchenden Protein (hier Lck-SH3) und der anschließenden Detektion wird anhand der Spotfärbung eine Interaktion des Proteins mit den entsprechenden immobilisierten Peptiden nachgewiesen. Die Stärke der Spotintensitäten ist ein Maß für die Stärke der Bindung. Eine zusammenfassende Übersicht findet sich bei Reinecke U., Volkmer-Engert R., Schneider-Mergener J. Applikation of peptide arrays prepared by the SPOT-technology. Current Opinion in Biotechnology 2001, 12:59-64.
Für den Immunoassay wurde die PepSpot-Membran über Nacht in 20 ml Blocking Puffer geblockt. Nach einmaligem Waschen mit T-TBS für 10 min wurde die Membran für 3 h mit 0,5 µg/ml SH3 Protein in 20 ml Blocking Puffer inkubiert. Danach wurde die Membran dreimal für je 10 min mit T-TB S gewaschen. […] Die Spot-Intensitäten wurden mit der QuantityOne Software (Bio-Rad, München) ausgewertet Die Analyse der Spot-Intensitäten erfolgte nach Subtraktion des Hintergrundes. […]

The next assay concerns the target Hck-SH3 (Homo sapiens, UniProt P08631). Put plainly: Fluorescence titration (intrinsic tryptophan fluorescence), binding constant. The note with it: Hck SH3 domain; fluorescence titration, 0,5 µM SH3 domain in PBS, 1mM DDT; each experiment done twice. The text has this:
(§1) Die Messungen wurden im Wesentlichen wie bei Schweimer K, Hoffmann S, Bauer F, Friedrich U, Kardinal C, Feller SM, Biesinger B, Sticht H. Structural investigation of the bindung of a herpesviral protein to the SH3 domain of tyrosine kinase Lck. Biochemistry. 2002 Apr 23;41(16):5120-30 beschrieben unter Verwendung eines Perkin-Elmer LS 55 Fluoreszenzspektrometers bei einer Anregungswellenlänge von 290 nm und einer Emissionswellenlänge von 345 nm durchgeführt. […] Nach PD1-Zugabe wurde jeweils die resultierende Fluoreszenzänderung aufgezeichnet. Durch eine Kontrolltitration (Hintergrundmessung), bei welcher die Peptidlösung gegen Wasser ersetzt wurde, konnten die Abweichungen der Fluoreszenzweite, welche durch eine sinkende SH3-Endkonzentration während der Titration hervorgerufen wurden, ausgeglichen werden. […] F = Fmin + (([Pges] + [Lges] + Kd)/(2)-sqrt(((([Pges]+[Lges]+Kd))^2)/(4)-[Pges]*[Lges]))*((Fmax-Fmin))/(Pges) [formula]
(§2) Durch nichtlineare Regression mit Fmax und Kd als angepasste Parameter konnten die experimentellen Daten an obige Gleichung angepasst werden.

Assay [2] deals with T1, Lck-SH3. The description is as above. The following applies: Lck SH3 domain; fluorescence titration, 0,5 µM free SH3 domain in PBS, 1mM DDT; each experiment done twice.
Text: as §1, §2

The next assay addresses PI3K SH3 Domäne (Homo sapiens, UniProt P27986). Described as above. The note with it: PI3K SH3 domain; fluorescence titration, 0,5 µM SH3 domain in PBS, 1mM DDT; each experiment done twice.
Text: as §1, §2

Another assay deals with Abl SH3 Domäne (Homo sapiens, UniProt P00519). Described as above. The note with it: Abl SH3 domain; fluorescence titration, 0,5 µM SH3 domain in PBS, 1mM DDT; each experiment done twice.
Text: as §1, §2

For another assay, the target named is T2, GST-Lck-SH3 (Homo sapiens, UniProt P06239).
T2 construct: rekombinant hergestellte Lck SH3 als Fusion mit Glutathion-S-Transferase (GST-Lck-SH3); made in house
Description: anti-Phage-ELISA, relative Lck-SH3 binding activity of phage clones. The following applies: phage-displayed peptide; detection at 450 nm; Fig. 1; 7 single experiments. The text has this: Dieser Bindungstest ist ein häufig verwendeter Test zur schnellen Bestimmung relativer Bindungsstarken selektierter Peptide, die hierbei noch physikalisch mit dem Phagen verknüpft vorliegen. Dieser Schritt dient auch zur Eliminierung von (bei dieser Methode nicht selten auftretenden) Phagenvarianten, die z. B. aufgrund ihrer Affinität zur Plastikoberfläche der verwendeten Mikrotiterplatten, angereichert werden und die somit zur Verfälschung der Ergebnisse führen können. Eine grundsätzliche Beschreibung der Methode findet sich z. B. unter Sparks et al. Methods Enzymol. 1995; 255:498-509.
GST-Lck-SH3 Protein wurde in einer Konzentration von 10 µg/ml in Tris-Bis über Nacht bei 4°C in Mikrotiterplatten immobilisiert. Verbleibende Bindungsstellen wurden durch 2-stündige Inkubation mit Blockierungspuffer (Bis-Tris mit 2.% Magermilchpulver) abgesättigt.
In einer anderen Mikrotiterplatte wurden zuerst je 100 µl Suspension der zu testenden Phagenvariante mit 100 µl Blockierungspuffer für 20 Minuten vorinkubiert und erst dann für 1 Stunde zum immobilisierten GST-Lck-SH3 Protein gegeben. Nach einem Waschschritt mit Bis-Tris wurde ein Meerrettich-Peroxidase-konjugierter Antikörper zugegeben und die Platten für eine weitere Stunde inkubiert. […]
In general terms: In an ELISA, binding on a coated surface is turned into a signal by an enzyme label.

T1 sequence (P06239 61-121 limits assumed): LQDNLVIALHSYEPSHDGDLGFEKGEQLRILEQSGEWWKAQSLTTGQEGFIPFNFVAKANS
PI3K SH3 Domäne, sequence (P27986 3-79 limits assumed): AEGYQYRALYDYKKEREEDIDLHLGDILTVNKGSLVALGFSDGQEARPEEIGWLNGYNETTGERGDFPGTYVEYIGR
Abl SH3 Domäne, sequence (P00519 61-121 limits assumed): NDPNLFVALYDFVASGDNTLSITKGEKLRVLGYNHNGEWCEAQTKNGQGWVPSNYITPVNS
Hck-SH3, sequence (P08631 78-138 limits assumed): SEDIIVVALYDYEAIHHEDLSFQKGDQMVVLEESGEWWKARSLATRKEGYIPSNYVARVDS
T2 sequence (P06239 61-121 limits assumed): as the sequence (P06239 61-121 limits assumed) above

Take “HFKRPLPPLPSL [PD1-R(-5)F, substitution variant of PD1-R found on PepSpot membrane]”: in the assay with Lck-SH3 [1], the “Bindung an die Lck-SH3 (Spot-Intensität)” value is on record as “stärkste Bindung”.

The Kd is a measure of binding affinity in units of concentration. Read a high Kd as weaker binding. Turning to HSKRPLPPLPSL [PD1-R], the Kd was 0.47 ± 0.02 µM at Hck-SH3, 23.1 ± 1.97 µM on Lck-SH3 [2], 13.1 ± 0.48 µM at PI3K SH3 Domäne and over 300 µM at Abl SH3 Domäne.

On to HSKYPLPPLPSL [PD1], for which the equilibrium dissociation constant (Kd) at Hck-SH3 was 0.23 ± 0.03 µM; on Lck-SH3 [2], 48.7 ± 1.65 µM; on PI3K SH3 Domäne, 112 ± 10.1 µM; on Abl SH3 Domäne it was over 300 µM.

For HTLQIPQHATSF, the “relative Lck-SH3-Bindungsaktivität” value in the assay with GST-Lck-SH3 is on record as “nicht bindende”.
